{"source": "paper PMC6508934", "about": "“Structural basis for mammalian nucleotide sugar transport” (eLife, 2019)", "key": {"[1]": {"target": "T1, mCST∆C (Mus musculus, UniProt Q61420)", "T1 construct": "modifying the full-length construct using site-directed mutagenesis to remove the last 15 residues (322-336); made in house; host or cells: Pichia pastoris", "T1 sequence (Q61420 1-321)": "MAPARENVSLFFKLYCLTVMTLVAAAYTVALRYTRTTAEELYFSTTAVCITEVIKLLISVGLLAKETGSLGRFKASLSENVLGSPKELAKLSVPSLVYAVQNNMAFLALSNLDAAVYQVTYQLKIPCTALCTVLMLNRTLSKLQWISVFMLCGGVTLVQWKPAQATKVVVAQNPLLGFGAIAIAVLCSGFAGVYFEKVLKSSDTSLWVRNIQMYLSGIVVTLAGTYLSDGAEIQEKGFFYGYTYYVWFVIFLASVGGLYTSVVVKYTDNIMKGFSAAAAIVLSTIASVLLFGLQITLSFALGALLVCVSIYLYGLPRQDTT", "assay": "Scintillation proximity binding assay (SPA), displacement of 30 nM [3H]CMP", "conditions": "full SPA titration against 30 nM [3H]CMP", "method": "Figure 1. Functional properties of mCST. (A) Purified, detergent-solubilized mCST was bound to SPA beads and the indicated compound was titrated against 30 nM [^3H]CMP to determine its affinity. Solid symbols denote titrations done with mCST and the open symbols are for mCST∆C. (B) Time course of 30 µM CMP-Sia uptake for purified mCST reconstituted into lipid vesicles with (black) or without (red) 300 µM CMP inside the vesicles. […] (C) The initial velocity of CMP-Sia uptake for either mCST (solid circles) or mCST∆C (open circles) reconstituted into CMP-filled vesicles is plotted as a function of substrate concentration to determine the Km and Vmax for transport. In all panels, the symbols show the mean ± standard error of the mean (SEM) for n = 2, except for the CMP titrations in (A), and the titration for mCST in (C) where n = 4. Figure 1—figure supplement 1. Description of SLC35 proteins. (A) Diagram of the nucleotide-sugar transporter (NST) transport cycle. Nucleotide sugars are first synthesized in the cytoplasm (or nucleus for CMP-Sia). They are then transported into the Golgi lumen by NSTs (blue box). A large family of glycosyltransferase enzymes transfers the sugar to a glycan acceptor, leaving behind the nucleotide monophosphate (NMP), which is then transported back to the cytoplasm by the NST. (B) A list of proteins in the SLC35 family with a known function and the associated nucleotide sugar(s) that they transport. SLC35B2 and SLC35B3 are listed for completeness even though they transport PAPS, the substrate used in sulfonation reactions inside the Golgi. In mammals, mannose (Man) is only present in the oligosaccharide precursor that is synthesized in the cytoplasm and then transported across the ER membrane, by a family of transporters distinct from NSTs, before being added to nascent polypeptides to form the base for N-linked glycans. […] (C) The structural formulas of the nucleotide phosphate (left) and sugar (right) moieties of nucleotide sugars are shown. The ‘‘~” symbol indicates the bond that links the two moieties. […]"}, "[2]": {"target": "T1, mCST∆C", "assay": "Intrinsic tryptophan fluorescence quenching assay", "type": "binding", "conditions": "fit of tryptophan fluorescence quenching, read-out: Kd (Trp-FL)"}, "[3]": {"assay": "HPLC analysis of CMP-Sia hydrolysis in aqueous buffer", "type": "physicochemical", "conditions": "AnP-treated CMP-Sia, AnP removed, pH 7.5 buffer, room temperature"}, "[4]": {"conditions": "no reference given; cited from earlier work"}, "[5]": {"target": "T2, mCST (W145L) (Mus musculus, UniProt Q61420, W145L)", "T2 sequence (Q61420 1-336 W145L)": "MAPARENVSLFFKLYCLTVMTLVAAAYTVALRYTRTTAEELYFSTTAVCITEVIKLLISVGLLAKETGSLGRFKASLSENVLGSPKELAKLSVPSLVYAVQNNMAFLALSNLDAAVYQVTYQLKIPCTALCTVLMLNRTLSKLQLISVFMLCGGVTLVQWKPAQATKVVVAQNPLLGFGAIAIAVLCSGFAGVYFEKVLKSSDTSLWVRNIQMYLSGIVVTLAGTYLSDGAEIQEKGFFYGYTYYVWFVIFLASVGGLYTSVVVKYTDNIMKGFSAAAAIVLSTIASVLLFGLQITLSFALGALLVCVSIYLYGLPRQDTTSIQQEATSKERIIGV", "assay": "SPA two-point CMP binding"}, "[6]": {"target": "T3, mCST (W160L) (Mus musculus, UniProt Q61420, W160L)", "T3 sequence (Q61420 1-336 W160L)": "T2 sequence (Q61420 1-336 W145L) with L145W, W160L", "assay": "SPA two-point CMP binding"}, "[7]": {"target": "T4, mCST (W207L) (Mus musculus, UniProt Q61420, W207L)", "T4 sequence (Q61420 1-336 W207L)": "T2 sequence (Q61420 1-336 W145L) with L145W, W207L", "assay": "SPA two-point CMP binding"}, "[8]": {"target": "T5, mCST (W207F) (Mus musculus, UniProt Q61420, W207F)", "T5 sequence (Q61420 1-336 W207F)": "T2 sequence (Q61420 1-336 W145L) with L145W, W207F", "assay": "SPA two-point CMP binding"}, "[9]": {"target": "T6, mCST (W247L) (Mus musculus, UniProt Q61420, W247L)", "T6 sequence (Q61420 1-336 W247L)": "T2 sequence (Q61420 1-336 W145L) with L145W, W247L", "assay": "SPA two-point CMP binding"}, "[10]": {"target": "T7, mCST (Mus musculus, UniProt Q61420)", "T7 sequence (Q61420 1-336)": "T2 sequence (Q61420 1-336 W145L) with L145W", "assay": "Intrinsic tryptophan fluorescence quenching assay"}, "[11]": {"target": "T2, mCST (W145L)", "assay": "Intrinsic tryptophan fluorescence quenching assay"}, "[12]": {"target": "T3, mCST (W160L)", "assay": "Intrinsic tryptophan fluorescence quenching assay"}, "[13]": {"target": "T6, mCST (W247L)", "assay": "Intrinsic tryptophan fluorescence quenching assay"}, "[14]": {"system": "mCST Trp207 mutants", "assay": "Intrinsic tryptophan fluorescence quenching assay", "conditions": "W207L and W207F mutants"}, "[15]": {"target": "T7, mCST", "assay": "Scintillation proximity binding assay (SPA), displacement of 30 nM [3H]CMP", "design": "Full-length mCST cDNA was synthesized (Bio Basic) and subcloned into the Pichia pastoris expression vector pPICZ; made in house; host or cells: Pichia pastoris", "method": "Figure 1. Functional properties of mCST. (A) Purified, detergent-solubilized mCST was bound to SPA beads and the indicated compound was titrated against 30 nM [^3H]CMP to determine its affinity. Solid symbols denote titrations done with mCST and the open symbols are for mCST∆C. (B) Time course of 30 µM CMP-Sia uptake for purified mCST reconstituted into lipid vesicles with (black) or without (red) 300 µM CMP inside the vesicles. […] (C) The initial velocity of CMP-Sia uptake for either mCST (solid circles) or mCST∆C (open circles) reconstituted into CMP-filled vesicles is plotted as a function of substrate concentration to determine the Km and Vmax for transport. In all panels, the symbols show the mean ± standard error of the mean (SEM) for n = 2, except for the CMP titrations in (A), and the titration for mCST in (C) where n = 4. Figure 1—figure supplement 1. Description of SLC35 proteins. (A) Diagram of the nucleotide-sugar transporter (NST) transport cycle. Nucleotide sugars are first synthesized in the cytoplasm (or nucleus for CMP-Sia). They are then transported into the Golgi lumen by NSTs (blue box). A large family of glycosyltransferase enzymes transfers the sugar to a glycan acceptor, leaving behind the nucleotide monophosphate (NMP), which is then transported back to the cytoplasm by the NST. (B) A list of proteins in the SLC35 family with a known function and the associated nucleotide sugar(s) that they transport. SLC35B2 and SLC35B3 are listed for completeness even though they transport PAPS, the substrate used in sulfonation reactions inside the Golgi. In mammals, mannose (Man) is only present in the oligosaccharide precursor that is synthesized in the cytoplasm and then transported across the ER membrane, by a family of transporters distinct from NSTs, before being added to nascent polypeptides to form the base for N-linked glycans. […] (C) The structural formulas of the nucleotide phosphate (left) and sugar (right) moieties of nucleotide sugars are shown. The ‘‘~” symbol indicates the bond that links the two moieties. In mammals, two types of sialic acid may be transported into the Golgi: N-acetylneuraminic acid (Neu5Ac) or N-glycolylneuraminic acid (Neu5Gc). The ring atoms for the nucleobases and Neu5Ac and Gal are labeled. [drawing 1] Figure 1—figure supplement 2. Sequence alignment of mCST with other SLC35 and DMT proteins. The two letter prefix for each sequence name indicates the species as follows: mm: Mus musculus; hs: Homo sapiens; sc: Saccharomyces cerevisiae; sn: Starkeya novella; gs: Galdieria sulphuraria. […] The labeled yellow bars under the sequences indicate the extent of each TM. The interfacial alpha helix (IH) connecting TMs 2 and 3 is also indicated. [drawing 2] Figure 1—figure supplement 3."}, "[16]": {"system": "CST", "conditions": "cited from earlier work"}, "[17]": {"system": "UDP-GlcNAc transporter", "design": "method as in Waldman and Rudnick, 1990", "conditions": "monoanionic UMP compared to dianionic UMP; ref Waldman and Rudnick, 1990; cited from earlier work"}}, "note": "Changes are numbered by the printed parent chain. Several values for one entry are separate records, joined by “and”; a condition that tells them apart may be missing. Identical values can stand only once.", "data": [{"smiles": "Nc1ccn([C@@H]2O[C@H](COP(=O)(O)O)[C@@H](O)[C@H]2O)c(=O)n1", "note": "[CMP, Cytidine 5'-monophosphate]", "values": [{"measurement": "Kd", "setting": "[1]", "result": "1.8 ± 0.4", "unit": "µM"}, {"measurement": "Kd", "setting": "[2]", "result": "11.1 ± 2.9", "unit": "µM"}, {"measurement": "Rate of CMP generation from CMP-Sia hydrolysis", "setting": "[3]", "result": "0.0051 ± 0.00014 %/min and 0.0051 %/min"}, {"measurement": "Highest pKa of the phosphate group", "setting": "[4]", "result": 6.3}, {"measurement": "Kd", "setting": "[5]", "result": "0.8 ± 0.3", "unit": "µM"}, {"measurement": "Kd", "setting": "[6]", "result": "1.6 ± 0.4", "unit": "µM"}, {"measurement": "Kd", "setting": "[7]", "result": "1.5 ± 0.4", "unit": "µM"}, {"measurement": "Kd", "setting": "[8]", "result": "3.8 ± 1.5", "unit": "µM"}, {"measurement": "Kd", "setting": "[9]", "result": "2.4 ± 1.5", "unit": "µM"}, {"measurement": "Kd", "setting": "[10]", "result": "2.9 ± 1.1", "unit": "µM"}, {"measurement": "Quenching of intrinsic tryptophan fluorescence on CMP binding (in words)", "setting": "[10]; wild-type mCST", "result": "significantly quenched"}, {"measurement": "Kd", "setting": "[11]", "result": "3.3 ± 1", "unit": "µM"}, {"measurement": "Kd", "setting": "[12]", "result": "11.9 ± 2.4", "unit": "µM"}, {"measurement": "Kd", "setting": "[13]", "result": "7.4 ± 2.6", "unit": "µM"}, {"measurement": "Quenching of intrinsic tryptophan fluorescence by CMP (in words)", "setting": "[14]", "result": "lack of any quenching"}, {"measurement": "Fold higher affinity of CMP towards mCST than CMP-Sia", "setting": "[15]; CMP versus CMP-Sia, Figure 1A", "result": "~ 100 fold"}, {"measurement": "Kd", "setting": "[15]; crude estimation from two-point SPA data (30 nM [3H]CMP ± 5 µM unlabeled CMP), mCST, read-out: Kd (SPA 2-point)", "result": "5.5 ± 1.6", "unit": "µM"}, {"measurement": "Kd", "setting": "[15]; full SPA titration against 30 nM [3H]CMP, purified detergent-solubilized mCST, read-out: Kd (SPA titration)", "result": "6.3 ± 1.2", "unit": "µM"}]}, {"smiles": "Nc1nc2c(ncn2[C@@H]2O[C@H](COP(=O)(O)O)[C@@H](O)[C@H]2O)c(=O)[nH]1", "note": "[GMP, Guanosine 5′-monophosphate]", "values": [{"measurement": "Kd", "setting": "[1]", "result": "5380 ± 1150", "unit": "µM"}]}, {"smiles": "CC(=O)N[C@H]1[C@H]([C@H](O)[C@H](O)CO)OC(O)(C(=O)O)C[C@@H]1O", "note": "(stereo partly drawn) [Sia, sialic acid]", "values": [{"measurement": "Competitive inhibition of CMP-Sia transport (in words)", "setting": "[16]; ref Carey et al., 1980, Perez and Hirschberg, 1987", "result": "does not competitively inhibit CMP-Sia transport"}, {"measurement": "Binding to mCST (in words)", "setting": "[15]; SPA titration, Figure 1A", "result": "does not bind mCST"}]}, {"smiles": "O=c1ccn([C@@H]2O[C@H](COP(=O)(O)O)[C@@H](O)[C@H]2O)c(=O)[nH]1", "note": "[UMP, Uridine 5′-monophosphate]", "values": [{"measurement": "Kd", "setting": "[1]", "result": "1620 ± 1120", "unit": "µM"}, {"measurement": "Fold higher Ki for inhibiting CMP-Sia transport (versus CMP)", "setting": "[16]; ref Chiaramonte et al., 2001", "result": 20, "unit": "fold"}, {"measurement": "Substrate quality for UDP-GlcNAc transporter (in words)", "setting": "[17]", "result": "poor substrate"}]}]}
